# Results reported in patent publication US20120115724A1, “METHOD OF CONTROLLING UNDESIRED VEGETATION” (SYNGENTA CROP PROTECTION LLC, priority 2009, published 2012).
# What was measured:
# Assay type in all cases: in vivo
# [1] = system: ABUTH Abutilon theophrasti; experiment: Post-emergence crop and weed test (Example 15); settings: 360 h, 8 g/ha, after 15 days, read-out: Percentage damage ABUTH
# Procedure: (§1) Seeds of crop and representative weed species were sown in standard soil in pots. After cultivation for 14 days under controlled conditions in a glasshouse (at 22/16° C., day/night; 16 hours light; 65% humidity), the plants were sprayed. The spray solution was prepared by dissolving the technical active ingredient in acetone containing 10.56 wt % Emulsogen EL, 42.22 wt % N-methylpyrrolidone and 2.22 wt % DPG-monoethyl ether to give a 5% stock solution. This was then diluted with water containing 0.2% (v/v) of the adjuvant X-77 to give the desired treatment concentration.
# (§2) The test plants were then grown on under controlled conditions in a glasshouse (at 22/16° C., day/night; 16 hours light; 65% humidity) and watered twice daily. After 15 days the test was evaluated (100 =total damage to plant; 0 =no damage to plant).
# [2] = system: AMARE Amaranthus retroflexus; experiment: Post-emergence crop and weed test (Example 15); settings: 360 h, 8 g/ha, after 15 days, read-out: Percentage damage AMARE
# Procedure: as §1, §2
# CHEAL Chenopodium album = experiment: Post-emergence crop and weed test (Example 15); settings: 360 h, 8 g/ha, after 15 days, read-out: Percentage damage CHEAL
# Procedure: as §1, §2
# [3] = system: EPHHL Euphorbia heterophylla; experiment: Post-emergence crop and weed test (Example 15); settings: 360 h, 8 g/ha, after 15 days, read-out: Percentage damage EPHHL
# Procedure: as §1, §2
# GLXMA Soybean = experiment: Post-emergence crop and weed test (Example 15); settings: Glycine max, 360 h, 8 g/ha, after 15 days, read-out: Percentage damage GLXMA
# Procedure: as §1, §2
# IPOHE Ipomoea hederacea = experiment: Post-emergence crop and weed test (Example 15); settings: 360 h, 8 g/ha, after 15 days, read-out: Percentage damage IPOHE
# Procedure: as §1, §2
# KCHSC Kochia scoparia = experiment: Post-emergence crop and weed test (Example 15); settings: Bassia scoparia, 360 h, 8 g/ha, after 15 days, read-out: Percentage damage KCHSC
# Procedure: as §1, §2
# [4] = system: POLCO Polygonum convolvulus; experiment: Post-emergence crop and weed test (Example 15); settings: Fallopia convolvulus, 360 h, 8 g/ha, after 15 days, read-out: Percentage damage POLCO
# Procedure: as §1, §2
# SIDSP Sida spinosa = experiment: Post-emergence crop and weed test (Example 15); settings: 360 h, 8 g/ha, after 15 days, read-out: Percentage damage SIDSP
# Procedure: as §1, §2
# SINAR Sinapis arvensis = experiment: Post-emergence crop and weed test (Example 15); settings: Mutarda arvensis, 360 h, 8 g/ha, after 15 days, read-out: Percentage damage SINAR
# Procedure: as §1, §2
# VERPE Veronica persica = experiment: Post-emergence crop and weed test (Example 15); settings: 360 h, 8 g/ha, after 15 days, read-out: Percentage damage VERPE
# Procedure: as §1, §2
# [5] = system: XANST Xanthium strumarium; experiment: Post-emergence crop and weed test (Example 15); settings: 360 h, 8 g/ha, after 15 days, read-out: Percentage damage XANST
# Procedure: as §1, §2
# [6] = system: Alopecurus myosuroides (ALOMY); experiment: Pre-emergence biological efficacy (Example 13); settings: pre-emergence, 1,000 g/ha, after 13 days; for pest or weed control at 1000 g/ha: Alopecurus myosuroides, 312 h, read-out: Percentage damage ALOMY
# Procedure: (§3) Seeds of Alopecurus myosuroides (ALOMY), Setaria faberi (SETFA), Echinochloa crus-galli (ECHCG), Solanum nigrum (SOLNI), Amaranthus retroflexus (AMARE) and Ipomea hederaceae (IPOHE) were sown in standard soil in pots. After cultivation for one day under controlled conditions in a glasshouse (at 24/16° C., day/night; 14 hours light; 65% humidity), the plants were sprayed with an aqueous spray solution derived from the formulation of the technical active ingredient in acetone/water (50:50) solution containing 0.5% Tween 20 (polyoxyethylene sorbitan monolaurate, CAS RN 9005-64-5) to give a final dose of 250 or 1000g/ha of test compound. The test plants were then grown under controlled conditions in the glasshouse (at 24/16° C., day/night; 14 hours light; 65% humidity) and watered twice daily. After 13 days the test was evaluated (100 =total damage to plant; 0 =no damage to plant).
# [7] = system: Amaranthus retroflexus (AMARE); experiment: Pre-emergence biological efficacy (Example 13); settings: pre-emergence, 1,000 g/ha, after 13 days; for pest or weed control at 1000 g/ha: Amaranthus retroflexus, 312 h, read-out: Percentage damage AMARE
# Procedure: as §3
# [8] = system: Echinochloa crus-galli (ECHCG); experiment: Pre-emergence biological efficacy (Example 13); settings: pre-emergence, 1,000 g/ha, after 13 days; for pest or weed control at 1000 g/ha: Echinochloa crus-galli, 312 h, read-out: Percentage damage ECHCG
# Procedure: as §3
# [9] = system: Ipomea hederaceae (IPOHE); experiment: Pre-emergence biological efficacy (Example 13); settings: pre-emergence, 1,000 g/ha, after 13 days; for pest or weed control at 1000 g/ha: Ipomoea hederacea, 312 h, read-out: Percentage damage IPOHE
# Procedure: as §3
# Setaria faberi (SETFA) [10] = experiment: Pre-emergence biological efficacy (Example 13); settings: pre-emergence, 1,000 g/ha, after 13 days; for pest or weed control at 1000 g/ha: Setaria faberi, 312 h, read-out: Percentage damage SETFA
# Procedure: as §3
# Solanum nigrum (SOLNI) [11] = experiment: Pre-emergence biological efficacy (Example 13); settings: pre-emergence, 1,000 g/ha, after 13 days; for pest or weed control at 1000 g/ha: Solanum nigrum, 312 h, read-out: Percentage damage SOLNI
# Procedure: as §3
# [12] = system: Alopecurus myosuroides (ALOMY); experiment: Post-emergence biological efficacy (Example 14); settings: post-emergence, 1,000 g/ha, after 13 days; for pest or weed control at 1000 g/ha: Alopecurus myosuroides, 312 h, read-out: Percentage damage ALOMY
# Procedure: as §3, with “for 8 days” for “for one day”, “or 1000 g/ha” for “or 1000g/ha”, “grown on” for “grown”, “in a” for “in the”, “evaluated (100=total” for “evaluated (100 =total”, “plant; 0=no” for “plant; 0 =no”
# [13] = system: Amaranthus retroflexus (AMARE); experiment: Post-emergence biological efficacy (Example 14); settings: post-emergence, 1,000 g/ha, after 13 days; for pest or weed control at 1000 g/ha: Amaranthus retroflexus, 312 h, read-out: Percentage damage AMARE
# Procedure: as §3, with “for 8 days” for “for one day”, “or 1000 g/ha” for “or 1000g/ha”, “grown on” for “grown”, “in a” for “in the”, “evaluated (100=total” for “evaluated (100 =total”, “plant; 0=no” for “plant; 0 =no”
# [14] = system: Echinochloa crus-galli (ECHCG); experiment: Post-emergence biological efficacy (Example 14); settings: post-emergence, 1,000 g/ha, after 13 days; for pest or weed control at 1000 g/ha: Echinochloa crus-galli, 312 h, read-out: Percentage damage ECHCG
# Procedure: as §3, with “for 8 days” for “for one day”, “or 1000 g/ha” for “or 1000g/ha”, “grown on” for “grown”, “in a” for “in the”, “evaluated (100=total” for “evaluated (100 =total”, “plant; 0=no” for “plant; 0 =no”
# [15] = system: Ipomea hederaceae (IPOHE); experiment: Post-emergence biological efficacy (Example 14); settings: post-emergence, 1,000 g/ha, after 13 days; for pest or weed control at 1000 g/ha: Ipomoea hederacea, 312 h, read-out: Percentage damage IPOHE
# Procedure: as §3, with “for 8 days” for “for one day”, “or 1000 g/ha” for “or 1000g/ha”, “grown on” for “grown”, “in a” for “in the”, “evaluated (100=total” for “evaluated (100 =total”, “plant; 0=no” for “plant; 0 =no”
# Setaria faberi (SETFA) [16] = experiment: Post-emergence biological efficacy (Example 14); settings: post-emergence, 1,000 g/ha, after 13 days; for pest or weed control at 1000 g/ha: Setaria faberi, 312 h, read-out: Percentage damage SETFA
# Procedure: as §3, with “for 8 days” for “for one day”, “or 1000 g/ha” for “or 1000g/ha”, “grown on” for “grown”, “in a” for “in the”, “evaluated (100=total” for “evaluated (100 =total”, “plant; 0=no” for “plant; 0 =no”
# Solanum nigrum (SOLNI) [17] = experiment: Post-emergence biological efficacy (Example 14); settings: post-emergence, 1,000 g/ha, after 13 days; for pest or weed control at 1000 g/ha: Solanum nigrum, 312 h, read-out: Percentage damage SOLNI
# Procedure: as §3, with “for 8 days” for “for one day”, “or 1000 g/ha” for “or 1000g/ha”, “grown on” for “grown”, “in a” for “in the”, “evaluated (100=total” for “evaluated (100 =total”, “plant; 0=no” for “plant; 0 =no”
Compound,pest or weed control at 1000 g/ha [6] [%],pest or weed control at 1000 g/ha [7] [%],pest or weed control at 1000 g/ha [8] [%],pest or weed control at 1000 g/ha [9] [%],pest or weed control at 1000 g/ha (Setaria faberi (SETFA) [10]) [%],pest or weed control at 1000 g/ha (Solanum nigrum (SOLNI) [11]) [%],pest or weed control at 1000 g/ha [12] [%],pest or weed control at 1000 g/ha [13] [%],pest or weed control at 1000 g/ha [14] [%],pest or weed control at 1000 g/ha [15] [%],pest or weed control at 1000 g/ha (Setaria faberi (SETFA) [16]) [%],pest or weed control at 1000 g/ha (Solanum nigrum (SOLNI) [17]) [%],other results
"C=Cc1c(N)nc(C2CC2)nc1C(=O)OC [Ref. Ex. C, 4-Amino-2-cyclopropyl-5-ethenyl-6-methoxycarbonyl-pyrimidine, reference compound]",,,,,,,,,,,,,pest or weed control at 8 g/ha [1]: 30%; pest or weed control at 8 g/ha [2]: 10%; pest or weed control at 8 g/ha (CHEAL Chenopodium album): 60%; pest or weed control at 8 g/ha [3]: 30%; plant injury at 8 g/ha (GLXMA Soybean): 70%; pest or weed control at 8 g/ha (IPOHE Ipomoea hederacea): 70%; pest or weed control at 8 g/ha (KCHSC Kochia scoparia): 0%; pest or weed control at 8 g/ha [4]: 0%; pest or weed control at 8 g/ha (SIDSP Sida spinosa): 40%; pest or weed control at 8 g/ha (SINAR Sinapis arvensis): 0%; pest or weed control at 8 g/ha (VERPE Veronica persica): 50%; pest or weed control at 8 g/ha [5]: 0%
"C=Cc1c(N)nc(-c2ccc(Cl)c(N(C)C)c2F)nc1C(=O)OCCCCCCCC [Compound 41, 4-Amino-2-(4-chloro-3-dimethylamino-2-fluorophenyl)-5-ethenyl-6- ^noctyloxycarbonyl-pyrimidine]",,,,,,,,,,,,,Percentage damage ALOMY [6]: 70%; Percentage damage AMARE [7]: 100%; Percentage damage ECHCG [8]: 100%; Percentage damage IPOHE [9]: 0%; Percentage damage SETFA (Setaria faberi (SETFA) [10]): 90%; Percentage damage SOLNI (Solanum nigrum (SOLNI) [11]): 80%; Percentage damage ALOMY [12]: 70%; Percentage damage AMARE [13]: 100%; Percentage damage ECHCG [14]: 80%; Percentage damage IPOHE [15]: 80%; Percentage damage SETFA (Setaria faberi (SETFA) [16]): 60%; Percentage damage SOLNI (Solanum nigrum (SOLNI) [17]): 90%
"C=Cc1c(NCc2ccccc2[N+](=O)[O-])nc(-c2ccc(Cl)c(OC)c2F)nc1C(=O)OC [Compound 15, 2-(4-Chloro-2-fluoro-3-methoxyphenyl)-5-ethenyl-6-methoxycarbonyl-4-(2-nitrophenylmethyl-amino)-pyrimidine]",50,100,70,100,0,100,70,100,90,90,70,90,
"C=Cc1c(NCc2ccco2)nc(-c2ccc(Cl)c(OC)c2F)nc1C(=O)OCc1ccccc1 [Compound 47, 2-(4-Chloro-2-fluoro-3-methoxyphenyl)-5-ethenyl-4-(furan-2-ylmethylamino)-6-phenylmethoxy-carbonyl-pyrimidine]",30,70,90,80,50,80,60,100,80,80,80,80,
"C=Cc1c(NCc2ccccc2F)nc(-c2ccc(Cl)c(OC)c2F)nc1C(=O)OC [Compound 14, 2-(4-Chloro-2-fluoro-3-methoxyphenyl)-5-ethenyl-4-(2-fluorophenylmethylamino)-6-methoxycarbonyl-pyrimi-dine]",0,20,0,50,0,60,0,100,0,60,0,90,
"C=Cc1c(NC2CCC2)nc(-c2ccc(Cl)c(OC)c2F)nc1C(=O)OC [Compound 24, 2-(4-Chloro-2-fluoro-3-methoxyphenyl)-4-cyclobutylamino-5-ethenyl-6-methoxycarbonyl pyrimidine]",10,100,50,80,0,80,10,100,40,70,10,90,
"C=Cc1c(NCc2ccccc2[N+](=O)[O-])nc(-c2ccc(Cl)c(N(C)C)c2F)nc1C(=O)OC [Compound 16, 2-(4-Chloro-3-dimethylamino-2-fluorophenyl)-5-ethenyl-6-methoxycarbonyl-4-(2-nitrophenylmethyl-amino)-pyrimidine]",60,50,70,0,70,30,70,100,70,60,90,80,
